Common to all, as to experiment: NCI tumour cell line growth inhibition, 48 h
In assay [1] the test system is HCC-2998 colon.
For assay [2], the system named is SK-OV-3 ovarian.
For assay [3], the system named is SK-MEL-2 melanoma.
Assay [4] relates to CAKI-1 renal.
The test system of assay [5] is DU-145 prostate.
The test system of assay [6] is HOP-92 NSCLC.
Assay [7] deals with 786-0 renal.
For assay [8], the system named is HS 578T breast.
Assay [9] relates to MOLT-4 leukemia.
For assay [10], the system named is PC-3 prostate.

“And” between values parts separate entries of the source, which are not always exact repeats. Equal entries are not always repeated.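 All cell lines were grown in 96-well plates and treated with compound for 48 hours. GI50: concentration for 50% inhibition of growth. TGI: concentration producing complete growth inhibition.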

Consider `Cc1nc(NC(=O)N2CCC[C@H]2C(N)=O)sc1-c1ccnc(C(C)(C)C(F)(F)F)c1`, for which the GI50 in [1] is 12.8 µM and 6.71 µM; in assay [2], 0.134 µM and 0.262 µM; in assay [3] it was 6.94 µM and > 10 µM; in assay [4], 2.39 µM and 3.35 µM; in assay [5], 4.84 µM and 9.16 µM; in [6], 0.0598 µM and 0.13 µM. The GI50 in [7] was 11.1 µM and > 10 µM; in assay [9], 2.49 µM and 2.94 µM; in assay [10], 2.19 µM and 3.61 µM. Also, the TGI in [1] is 49.9 µM and > 10 µM; in assay [2], 5.98 µM and 6.37 µM; in assay [3], 24.1 µM and > 10 µM; in [4], 17.8 µM and > 10 µM; in assay [5] it was more than 73.1 µM; in assay [6], 1.52 µM and 2.89 µM. Also, the TGI was 64.1 µM and > 10 µM in assay [7]; 21.2 µM and 3.1 µM in assay [8]; 28.2 µM and > 10 µM in assay [9]; 25.4 µM and > 10 µM in assay [10].

Regarding `Cn1cnc([N+](=O)[O-])c1Sc1ncnc2c1ncn2C1OC(CO)C(O)C1O` (stereo not given), the GI50 in assay [1] is 5.02 µM; in assay [2] it was 0.564 µM; in [3], 8.9 µM; in assay [4] it was 3.53 µM; in assay [5], 1.87 µM; in assay [6] it was 31.3 µM. In addition, the GI50 in assay [7] was 5.35 µM; in assay [8], 27.8 µM; in assay [9], 8.32 µM; in [10], 8.66 µM. In addition, the TGI in [1], in assay [2], in [3], in assay [4], in [5] and in assay [6] was more than 100 µM throughout. Besides, the TGI was more than 100 µM in assay [7], more than 100 µM in [8], 64.5 µM in assay [9] and more than 100 µM in [10].

Consider `CC(=O)Oc1cccc2c1C(=O)c1c(OC(C)=O)cc(C)cc1C2=O`, for which the TGI in assay [1], in assay [2], in assay [3], in assay [4], in assay [5] and in [6] was more than 100 µM in each case. Further, the TGI in assay [7] is 72.5 µM; in [8], more than 100 µM; in [9] it was more than 100 µM; in [10], more than 100 µM.

For the compound `Oc1ccc2ccccc2c1N=Nc1ccccc1`, the TGI in assay [1], in assay [2], in [3], in [4], in assay [5] and in assay [6] was more than 100 µM each time. The TGI in [7], in assay [8], in assay [9] and in assay [10] was more than 100 µM throughout. Further, in [7], the GI50 is 35.4 µM and > 100 µM.

With `COc1ccc(/C=C(\C#N)c2cc3ccccc3n2C)cc1`, the GI50 in [1] is 0.865 µM; in assay [2] it was 0.787 µM; in assay [3], 0.471 µM; in assay [4], 0.437 µM; in assay [5], 0.502 µM; in assay [6], 1.5 µM. For the same compound, the GI50 in assay [7] was 0.613 µM; in [8], 0.352 µM; in assay [9], 0.448 µM; in assay [10], 0.448 µM. For the same compound, the TGI in assay [1] is 5.98 µM; in [2], more than 100 µM; in assay [3] it was more than 100 µM; in assay [4], more than 100 µM; in assay [5] it was more than 100 µM; in assay [6], more than 100 µM. Also, the TGI in assay [7] is more than 100 µM; in assay [8], more than 100 µM; in assay [9], more than 40.3 µM; in [10], more than 100 µM.

In the case of `COc1ccc(/C=C2\N=C3SC=C(N)N3C2=O)cc1`, the GI50 in assay [1] was 1.65 µM; in [2], 2.16 µM; in assay [3] it was 1.02 µM; in assay [4] it was 1.32 µM; in [5], 1.2 µM; in assay [6], 0.224 µM. The GI50 was 1.28 µM in assay [7], 1.19 µM in [8], 0.28 µM in assay [9] and 0.559 µM in assay [10]. The TGI in [1] was determined as 3.28 µM; in [2] it was 11.7 µM; in assay [3], 2.75 µM; in assay [4] it was 7.01 µM; in [5] it was 2.71 µM; in assay [6], 1.93 µM. Also, the TGI in assay [7] came to 2.7 µM; in [8], 5.56 µM; in assay [9], 2.91 µM; in assay [10] it was 3.57 µM.

Take `O=[N+]([O-])c1ccc2c(N=Nc3c(O)ccc4ccccc34)c(O)cc(S(=O)(=O)O)c2c1`: the TGI is more than 100 µM in assay [1]; 50 µM in [2]; 50 µM and > 100 µM in [3]; 50 µM in assay [4]; more than 100 µM in assay [5]; 50 µM in assay [6]. Besides, the TGI was 50 µM and > 100 µM in assay [7]; more than 100 µM in [8]; 50 µM and > 100 µM in [9]; 50 µM and > 100 µM in [10]. Also, the GI50 in [3] is 40.9 µM; in [7] it was 30.7 µM; in [8] it was 67.2 µM; in assay [9] it was 15.7 µM; in [10] it was 34.5 µM.

(Values after PubChem BioAssay (NCI).)
